pIC50: −log10 of the molar value. Counter-ions that a name gives are not always drawn.
Legend:
[1] = tested on: rat brain synaptosomal preparation; assay: Calcium uptake-inhibiting action: inhibition of potassium-stimulated 45Ca uptake in a rat brain synaptosomal preparation; type: biochemical, rat (Wistar); details: rat brain cortex synaptosomes; 60 mM potassium chloride stimulation; 34° C.; incubation 20 seconds; pH 7.4; read-out: IC50 (50% inhibition of the stimulated 45Ca uptake)
Text: The calcium uptake-inhibiting action of the novel compounds of formula (I) was studied on a rat brain synaptosomal preparation by using the method of P. H. Wu et al. [J. Neurochem. 39, 700 (1982)].
Wistar rats weighting 180 to 200 g were decapitated, their brains were collected in an ice-cold physiological saline solution, the cortex was removed and purified from the white substance. The tissue was homogenized in 10 volumes of 0.32M sucrose solution by using a glass-teflon potter. After centrifuging the homogenate at a rate of 1000×g at 4° C. for 10 minutes, the supernatant was further centrifuged at 10000×g for 20 minutes. The sediment was taken up in a 0.32M sucrose solution in such a way that the protein content of the preparation was adjusted to 20 mg/ml.
The medium (containing 112 mM of sodium chloride, 5 mM of potassium chloride, 1.3 mM of magnesium chloride, 1.2 mM of sodium dihydrogen phosphate, 1.2 mM of calcium chloride, 10 mM of glucose, 20 mM of IRIS buffer) used for the incubation was saturated with carbogen, consisting of 95% by volume of oxygen and 5% by volume of carbon dioxide, up to a pH of 7.4. After adding the test substances to the medium, the synaptosomal preparation was added in an amount corresponding to 1 mg of protein. The incubation was carried out in a final volume of 1 ml. The samples were pre-incubated at 34° C. for 20 minutes. The calcium uptake was begun by using a ^45 Cacl2 solution of 75 nCi activity. Potassium chloride used for investigating the potassium-induced ^45 Ca uptake was employed in 60 mM concentration whereas sodium chloride was added in the same concentration to the control samples. The incubation lasted 20 seconds. The reaction was stopped by 5 ml of a stopping solution containing 120 mM of sodium chloride, 5 mM of potassium chloride, 5 mM of EGTA and 20 mM of TRIS at pH 7.4. The samples were filtered through a Whatman GF/C filter paper and twice washed with 5 ml of a washing solution each, containing 132 mM of sodium chloride, 5 mM of potassium chloride, 1.3 mM of magnesium chloride, 1.2 mM of calcium chloride and 20 mM of IRIS at pH 7.4. (Abbreviations used above: TRIS means tris(hydroxymethyl)aminomethane; EGTA means ethylene glycol bis(β-aminoethyl) ether-N,N,N',N'-tetraacetic acid).
The filter papers were put into glass cuvets, 10 ml of a scintillation liquid each were added, then the radioactivity of the samples was measured in an 1219 Rackbeta (LKB Wallace) liquid scintillation spectrophotometer.
The IC50 values obtained by examination of the concentration/effect correlations are shown in Table I. IC50 value means the molar concentration of the test compounds which causes 50% inhibition of the stimulated ^45 Ca uptake.

[2] = tested on: Male Hannover-Wistar rats; assay: Potassium cyanide test: protective effect against histotoxic hypoxia; type: in vivo, rat (Hannover-Wistar); details: Rattus norvegicus, po, read-out: ED50 p.o. (dose protecting half of the treated animals from the hypoxia)
CFLP mice = assay: Antihypoxic effect: asphyxial action in closed glass cylinder (method of Caillard et al.), survival time; type: in vivo, mouse (CFLP); details: 50 mg/kg oral, 60 minutes before test; n = 10; protected = surviving longer by 30% than average survival time of control group (23.5 ± 2.51 sec)
Method: The antiphypoxic effect was studied by using two methods. According to the method of C. Caillard et al. [Life Sci. 16, 1607 (1975)] the asphyxial action was determined after starvation for 16 hours on CFLP mice of both sexes weighting 24 to 26 g. Each animal was placed in a separate well-closed glass cylinder. The interval passing from closing the cylinder until the cessation of the last visible respiratory movement was registered as survival time. Animals, surviving longer by 30% than the average survival time of the control group, were considered to be protected. The test substances were administered in an oral dose of 50 mg/kg by 60 minutes before starting the examination.

Row | SMILES | pIC50 [1] | ED50 [2] [mg/kg] | Protected animals (CFLP mice) [%]
1 | C=C1N(CCCC)C(=O)OC12CCN(CCCC(c1ccc(F)cc1)c1ccc(F)cc1)CC2 [Compound 1, 1-Oxa-2-oxo-3-butyl-4-methylene-8-[4,4-bis(4-fluorophenyl)butyl]-3,8-diazaspiro[4,5]decane] | 5.24 | 40.9 | –
2 | C=C1N(C(C)(C)C)C(=O)OC12CCN(CCCC(c1ccc(F)cc1)c1ccc(F)cc1)CC2 [Compound 2, 1-Oxa-2-oxo-3-tert-butyl-4-methylene-8-[4,4-bis(4-fluorophenyl)butyl]-3,8-diazaspiro[4,5]decane] | 5.23 | 39.9 | –
3 | C=C1N(c2ccccc2)C(=O)OC12CCN(CCCC(c1ccc(F)cc1)c1ccc(F)cc1)CC2 [Compound 3, 1-Oxa-2-oxo-3-phenyl-4-methylene-8-[4,4-bis(4-fluorophenyl)butyl]-3,8-diazaspiro[4,5]decane] | 5.68 | – | –
4 | C=C1N(C2CCCCC2)C(=O)OC12CCN(CCCC(c1ccc(F)cc1)c1ccc(F)cc1)CC2 [Compound 4, 1-Oxa-2-oxo-3-cyclohexyl-4-methylene-8-[4,4-bis(4-fluorophenyl)butyl]-3,8-diazaspiro[4,5]decane] | 5.28 | 37.9 | –
5 | CCCCN1C(=O)OC2(CCN(CCCC(c3ccc(F)cc3)c3ccc(F)cc3)CC2)C1(C)O (stereo not drawn) [Compound 5, 1-Oxa-2-oxo-3-butyl-4-hydroxy-4-methyl-8-[4,4-bis(4-fluorophenyl)butyl]-3,8-diazaspiro[4,5]decane hydrochloride] | 5.21 | – | –
6 | CN1C(=O)OC2(CCN(CCc3ccc(F)cc3)CC2)C1(C)O (stereo not drawn) [Compound 6, 1-Oxa-2-oxo-3,4-dimethyl-4-hydroxy-8-[2-(4-fluorophenyl)ethyl]-3,8-diazaspiro[4,5]decane] | – | – | 60
7 | CCCN1C(=O)OC2(CCN(CCc3ccc(F)cc3)CC2)C1(C)O (stereo not drawn) [Compound 7, 1-Oxa-2-oxo-3-propyl-4-hydroxy-4-methyl-8-[2-(4-fluorophenyl)ethyl]-3,8-diazaspiro[4,5]decane] | – | – | 40
8 | CC1(O)N(C2CCCCC2)C(=O)OC12CCN(CCc1ccc(F)cc1)CC2 (stereo not drawn) [Compound 8, 1-Oxa-2-oxo-3-cyclohexyl-4-hydroxy-4-methyl-8-[2-(4-fluorophenyl)ethyl]-3,8-diazaspiro[4,5]decane] | – | – | 60
9 | CCN1C(=O)OC2(CCN(CCc3ccc(F)cc3)CC2)C1(C)O (stereo not drawn) [Compound 9, 1-Oxa-2-oxo-3-ethyl-4-hydroxy-4-methyl-8-[2-(4-fluorophenyl)ethyl]-3,8-diazaspiro[4,5]decane] | – | – | 60
